Columns and labels:
Type in all cases: cell-based
[1] = system: E. coli strain DH5αE (parental); experiment: zone of growth inhibition test on LB agar plates; conditions: disk with 90 μmol pHBA sodium salt, 24 hr at 37° C.
Procedure: (§1) A zone of growth inhibition test was done using 0.1 ml of overnight cultures in LB medium plated onto LB agar plates using 2.5 ml LB soft agar.

[2] = system: E. coli strain DPD2443 (yhcP::TN<Kan> of DH5αE); experiment: zone of growth inhibition test on LB agar plates; conditions: disk with 90 μmol pHBA sodium salt, 24 hr at 37° C.
Procedure: as §1

[3] = system: E. coli strain DPD2455 (DPD2433 yhcS− with pDEW673 yhcQP); conditions: sodium salt of pHBA 80 μmoles/disk
Excerpt: (§2) Plasmids pDEW668, pDEW673, pDEW675, and a control plasmid, pTrcHis2TOPO®/lacZ (Invitrogen), were moved by transformation to E. coli strain DPD2433, selecting for Ampicillin resistance, to generate strains DPD3317, DPD2455, DPD2457, and DPD3316, respectively.

[4] = system: E. coli strain DPD2457 (DPD2433 yhcS− with pDEW675 yhcRQ); conditions: sodium salt of pHBA 80 μmoles/disk
Excerpt: as §2

[5] = system: E. coli strain DPD3316 (DPD2433 yhcS− with pTrcHis2TOPO®/lacZ control); conditions: sodium salt of pHBA 80 μmoles/disk
Excerpt: as §2

[6] = system: E. coli strain DPD3317 (DPD2433 yhcS− with pDEW668 yhcRQP); conditions: sodium salt of pHBA 80 μmoles/disk
Excerpt: as §2

[7] = system: E. coli strain DPD2459 (MG1655 + with pKK223-3 control plasmid); experiment: pHBA zone of growth inhibition, plasmid-carrying strains (Table 9)
Excerpt: as §2
(§3) The YhcP-Left primer was designed to contain a HindIII site and the YhcP-Right primer was designed to contain an EcoRI site for directional cloning of the resultant PCR product. […] The product of the PCR reaction was digested with restriction enzymes EcoRI and HindIII. The restriction digestion also contained pKK223-3 at an approximate molar ratio of 2:1 (insert:vector). Following incubation at 37° C. for 1.5 hours, the enzymes were inactivated by incubation at 65° C. for 20 minutes. The enzymes were subsequently removed by use a Qiaquick PCR purification kit (Qiagen) according to the vendor's instructions. The purified restriction products were ligated using T4 DNA ligase at 16° C. overnight. Following ligation, PstI and SmaI digestions were used to linearize the vector without insert DNA. The DNA from this selection digestion was used for transformation of E. coli strain JM105 (Amersham Pharmacia Biotech Inc., Piscataway, N.J.) using selection for Ampicillin resistance. Plasmid DNA from individual transformants was digested with EcoRI and HindIII. […] This plasmid and others were placed in various host strains by transformation and selection for Ampicillin resistance.

[8] = system: E. coli strain DPD2462 (DPD2444 yhcP− with pKK223-3 control plasmid); experiment: as above
Excerpt: as §2, §3

[9] = system: E. coli strain DPD2463 (DPD2444 yhcP− with pDEW659 yhcP); experiment: as above
Excerpt: as §2, §3

[10] = system: E. coli strain DPD2464 (DPD2444 yhcP− with pDEW673 yhcQP); experiment: as above
Excerpt: as §2, §3

[11] = system: E. coli strain DPD2465 (DPD2444 yhcP− with pDEW675 yhcRQ); experiment: as above
Excerpt: as §2, §3

[12] = system: E. coli strain DPD2466 (DPD2433 yhcS− with pKK223-3 control plasmid); experiment: as above
Excerpt: as §2, §3

[13] = system: E. coli strain DPD2467 (DPD2433 yhcS− with pDEW659 yhcP); experiment: as above
Excerpt: as §2, §3

[14] = system: E. coli strain DPD1818 (tolC); experiment: Growth in LB medium in the presence of pHBA, scored visually; further: key: ++++ indicates full turbidity; +++ indicates moderate, but visually less than full turbidity; + indicates very slight turbidity; − indicates no turbidity
Excerpt: (§4) Strain DPD1818 carries a to/C::miniTn10 mutation in the MG1655 background. It was constructed by transduction of E. coli MG1655 using P1clr100 Cm phage grown on E. coli strain DE112 (Van Dyk et al. Appl. Environ. Microbiol. 60:1414-1420 (1994)), which carries a tolC::miniTn10 mutation, and selection for tetracycline resistance. Strain DPD2444, described above, carries a yhcP::TN<Kan> mutation. Strain DP2446 carries both the tolC::miniTn10 and yhcP::TN<Kan>. This strain was constructed using by P1clr100Cm mediated transduction of DE112 with phage grown on strain DPD2443 and selection for kanamycin resistance. Each of these mutant strains was grown overnight in LB medium at 37° C. […] The final volume in the wells of a 96-well microplate was 100 μl and the final dilution of the inoculum was 1 to 1000. This microplate was covered and incubated at 37° C. for 7 hours and then incubated at room temperature for 3 days. The growth in each well was then scored visually.

[15] = system: E. coli strain DPD2444 (yhcP); experiment: as above; further: key: ++++ indicates full turbidity; +++ indicates moderate, but visually less than full turbidity; + indicates very slight turbidity; − indicates no turbidity
Excerpt: as §4

[16] = system: E. coli strain DPD2446 (tolC yhcP); experiment: as above; further: key: ++++ indicates full turbidity; +++ indicates moderate, but visually less than full turbidity; + indicates very slight turbidity; − indicates no turbidity
Excerpt: as §4

[17] = system: E. coli strain MG1655 (+); experiment: as above; further: key: ++++ indicates full turbidity; +++ indicates moderate, but visually less than full turbidity; + indicates very slight turbidity; − indicates no turbidity
Excerpt: as §4

[18] = Vogel-Bonner 0.4% glucose, average of two experiments

Structure (SMILES): O=C(O)c1ccc(O)cc1 [pHBA, para-hydroxybenzoic acid]
- pHBA zone of growth inhibition, mm diameter [1]: 9.0 mm
- pHBA zone of growth inhibition, mm diameter [2]: 13.0 mm
- clarity of pHBA zone of growth inhibition [3]: turbid
- pHBA zone of growth inhibition, mm diameter [3, 18]: 9.5 mm
- clarity of pHBA zone of growth inhibition [4]: slightly turbid
- pHBA zone of growth inhibition, mm diameter [4, 18]: 17.0 mm
- clarity of pHBA zone of growth inhibition [5]: clear
- pHBA zone of growth inhibition, mm diameter [5, 18]: 23.5 mm
- clarity of pHBA zone of growth inhibition [6]: turbid
- pHBA zone of growth inhibition, mm diameter [6, 18]: 9.8 mm
- clarity of pHBA zone of growth inhibition [7]: turbid
- pHBA zone of growth inhibition, mm diameter ([7]; tested as for Table 8): 10.0 mm
- clarity of pHBA zone of growth inhibition [8]: clear
- pHBA zone of growth inhibition, mm diameter ([8]; tested as for Table 8): 22.8 mm
- clarity of pHBA zone of growth inhibition [9]: turbid
- pHBA zone of growth inhibition, mm diameter ([9]; tested as for Table 8): 10.5 mm
- clarity of pHBA zone of growth inhibition [10]: turbid
- pHBA zone of growth inhibition, mm diameter ([10]; tested as for Table 8): 9.8 mm
- clarity of pHBA zone of growth inhibition [11]: clear
- pHBA zone of growth inhibition, mm diameter ([11]; tested as for Table 8): 21.8 mm
- clarity of pHBA zone of growth inhibition [12]: clear
- pHBA zone of growth inhibition, mm diameter ([12]; tested as for Table 8): 19.2 mm
- clarity of pHBA zone of growth inhibition [13]: clear
- pHBA zone of growth inhibition, mm diameter ([13]; tested as for Table 8): 18.8 mm
- Growth in LB medium for 3 days at room temperature with pHBA ([14]; 25 mM pHBA sodium salt): ++++
- Growth in LB medium for 3 days at room temperature with pHBA ([14]; 50 mM pHBA sodium salt): ++++
- Growth in LB medium for 3 days at room temperature with pHBA ([14]; 100 mM pHBA sodium salt): +
- Growth in LB medium for 3 days at room temperature with pHBA ([14]; 200 mM pHBA sodium salt): −
- Growth in LB medium for 3 days at room temperature with pHBA ([15]; 25 mM pHBA sodium salt): ++++
- Growth in LB medium for 3 days at room temperature with pHBA ([15]; 50 mM pHBA sodium salt): ++++
- Growth in LB medium for 3 days at room temperature with pHBA ([15]; 100 mM pHBA sodium salt): −
- Growth in LB medium for 3 days at room temperature with pHBA ([15]; 200 mM pHBA sodium salt): −
- Growth in LB medium for 3 days at room temperature with pHBA ([16]; 25 mM pHBA sodium salt): ++++
- Growth in LB medium for 3 days at room temperature with pHBA ([16]; 50 mM pHBA sodium salt): +
- Growth in LB medium for 3 days at room temperature with pHBA ([16]; 100 mM pHBA sodium salt): −
- Growth in LB medium for 3 days at room temperature with pHBA ([16]; 200 mM pHBA sodium salt): −
- Growth in LB medium for 3 days at room temperature with pHBA ([17]; 25 mM pHBA sodium salt): ++++
- Growth in LB medium for 3 days at room temperature with pHBA ([17]; 50 mM pHBA sodium salt): ++++
- Growth in LB medium for 3 days at room temperature with pHBA ([17]; 100 mM pHBA sodium salt): +++
- Growth in LB medium for 3 days at room temperature with pHBA ([17]; 200 mM pHBA sodium salt): −

Reference: US7279321B2, “Methods for increasing the resistance of a host cell to aromatic carboxylic acids” (priority 2003, dated 2007)
